Residue numbers refer to the chain shown, from its start. Like-named read-outs stand apart in the source and are kept apart here. Each block holds one molecule with its values, some of them ahead of it.
Assays:
[1] = system: locomotor activity in mice; experiment: Locomotor activity in mice (open field, Digiscan activity monitor); type: in vivo, mouse (NIH Swiss)
[2] = target: T1, A1 receptors from rat brain membranes (Rattus norvegicus, UniProt P25099); experiment: biochemical; type: binding
T1 construct: Rat cerebral cortical and striatal membranes were prepared; from tissue; host or cells: rat brain (cerebral cortical) membranes
T1 sequence (P25099 1-326): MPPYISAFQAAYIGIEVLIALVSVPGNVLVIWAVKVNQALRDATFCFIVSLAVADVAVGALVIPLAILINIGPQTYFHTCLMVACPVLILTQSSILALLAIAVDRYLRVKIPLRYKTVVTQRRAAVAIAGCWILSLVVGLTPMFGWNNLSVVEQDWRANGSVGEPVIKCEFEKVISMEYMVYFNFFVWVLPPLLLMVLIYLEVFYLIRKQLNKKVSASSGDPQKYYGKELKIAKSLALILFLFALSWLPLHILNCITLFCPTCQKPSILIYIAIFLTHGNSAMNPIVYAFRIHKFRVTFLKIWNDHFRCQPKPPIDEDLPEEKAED

[3] = target: T2, A2 receptors from rat striatal membranes (Rattus norvegicus, UniProt P30543); experiment: Radioligand binding at A2 (A2a) receptors, displacement of [3H]CGS 21680 (or [3H]NECA with 50 nM CPA) from rat striatal membranes
T2 construct: Rat cerebral cortical and striatal membranes were prepared; from tissue; host or cells: rat striatal membranes
T2 sequence (P30543 whole entry): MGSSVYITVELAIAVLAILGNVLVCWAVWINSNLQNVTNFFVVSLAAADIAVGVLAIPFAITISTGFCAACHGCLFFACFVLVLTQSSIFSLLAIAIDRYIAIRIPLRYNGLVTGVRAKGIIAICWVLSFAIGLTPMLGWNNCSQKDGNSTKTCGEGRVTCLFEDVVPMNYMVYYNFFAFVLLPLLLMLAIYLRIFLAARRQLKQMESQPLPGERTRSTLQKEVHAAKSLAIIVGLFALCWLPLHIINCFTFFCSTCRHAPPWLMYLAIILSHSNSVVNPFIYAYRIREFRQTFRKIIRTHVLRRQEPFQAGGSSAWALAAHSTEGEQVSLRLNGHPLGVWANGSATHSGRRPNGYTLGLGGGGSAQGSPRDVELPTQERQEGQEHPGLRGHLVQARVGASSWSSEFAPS

[4] = system: cardiovascular parameters in rats; type: in vivo, rat; conditions: 0.1 mg/kg i.p.
[5] = target: T3, adenosine uptake sites in rat brain membranes (Rattus norvegicus, UniProt O54698); experiment: Competition for [3H]NBTI binding at adenosine uptake sites in rat striatal membranes; conditions: for Ki: read-out: Ki (NBTI), 0.3 nM [3H]NBTI, 30 min at 23° C., pH 7.4
T3 sequence (O54698 1-457): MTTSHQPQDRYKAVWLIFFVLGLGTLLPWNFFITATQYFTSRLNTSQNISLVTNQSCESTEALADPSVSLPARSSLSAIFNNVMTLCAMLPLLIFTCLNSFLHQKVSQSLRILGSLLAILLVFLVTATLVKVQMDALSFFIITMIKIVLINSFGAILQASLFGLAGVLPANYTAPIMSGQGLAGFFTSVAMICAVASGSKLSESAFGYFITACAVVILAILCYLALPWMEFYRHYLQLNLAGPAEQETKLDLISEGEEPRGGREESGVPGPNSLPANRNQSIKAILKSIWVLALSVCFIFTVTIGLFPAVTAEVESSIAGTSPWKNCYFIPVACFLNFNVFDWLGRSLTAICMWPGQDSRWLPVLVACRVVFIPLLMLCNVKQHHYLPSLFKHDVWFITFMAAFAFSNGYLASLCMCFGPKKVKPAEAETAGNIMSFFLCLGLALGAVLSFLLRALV

[6] = target: T1, A1 receptors from rat brain membranes
[7] = target: T2, A2 receptors from rat striatal membranes; conditions: cited from earlier work
[8] = target: T4, A1 and A3 adenosine receptors in mouse brain membranes (Mus musculus, UniProt Q60612)
T4 sequence (Q60612 1-326): T1 sequence (P25099 1-326) with V151E, D155A, R157I, D316E, L319I, E325D

[9] = system: locomotor activity in mice; conditions: CSC 1 mg/kg, shown earlier; cited from earlier work
rat A3 receptors = target: T5, rat A3 receptors (Rattus norvegicus, UniProt P28647); experiment: Irreversible inhibition of radioligand binding at rat A3 receptors after preincubation
T5 construct: expressed in transfected cells; host or cells: CHO cells, transfected (the IC50); RBL-2H3 rat mast cells (endogenous) also named
T5 sequence (P28647 1-320): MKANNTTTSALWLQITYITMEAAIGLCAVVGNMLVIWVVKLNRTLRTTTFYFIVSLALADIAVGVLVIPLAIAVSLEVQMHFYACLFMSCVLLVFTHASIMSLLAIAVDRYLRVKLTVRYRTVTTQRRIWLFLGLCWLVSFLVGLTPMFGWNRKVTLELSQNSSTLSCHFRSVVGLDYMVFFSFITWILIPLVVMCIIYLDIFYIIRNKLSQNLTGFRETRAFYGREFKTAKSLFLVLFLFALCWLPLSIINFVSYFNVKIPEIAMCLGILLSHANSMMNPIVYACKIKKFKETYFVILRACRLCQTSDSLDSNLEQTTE

[10] = target: T6, A3 adenosine receptors in mouse brain membranes (Mus musculus, UniProt Q61618); experiment: [125I]AB-MECA saturation binding to A3 receptors in mouse brain membranes in the presence of 100 nM CPX
T6 construct: in mouse brain membranes; from tissue; host or cells: NIH Swiss mouse brain region membranes (cerebellum for the Kd/Bmax)
T6 sequence (Q61618 1-319): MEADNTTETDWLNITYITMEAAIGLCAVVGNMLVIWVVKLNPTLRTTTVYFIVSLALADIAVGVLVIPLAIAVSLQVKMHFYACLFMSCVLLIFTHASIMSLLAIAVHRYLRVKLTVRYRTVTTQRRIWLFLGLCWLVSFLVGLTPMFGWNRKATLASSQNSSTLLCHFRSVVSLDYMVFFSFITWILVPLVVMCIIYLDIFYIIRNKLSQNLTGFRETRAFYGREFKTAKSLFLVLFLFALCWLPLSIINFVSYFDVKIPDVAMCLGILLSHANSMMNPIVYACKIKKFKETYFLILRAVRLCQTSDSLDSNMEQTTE

[11] = target: T7, A3 adenosine receptors in rat brain membranes (Rattus norvegicus, UniProt P28647)
T7 sequence (P28647 1-320): T5 sequence (P28647 1-320)

[12] = system: A1 and A3 adenosine receptors in mouse brain membranes
[13] = Table 2, [3H]PIA, rat brain membranes, read-out: Ki (A1)
[14] = Table 2, [3H]CGS 21680, rat striatal membranes, read-out: Ki (A2)
[15] = values without SEM, taken from the literature; read-out: A1 affinity Ki; cited from earlier work
[16] = values without SEM, taken from the literature, read-out: A2 affinity Ki

- Ki [2, 13]: 400 nM
- Ki [3, 14]: 5.7 nM
Structure (SMILES): CCNC(=O)[C@H]1O[C@@H](n2cnc3c(N)nc(NCCc4ccc(CCC(=O)NCCN)cc4)nc32)[C@H](O)[C@@H]1O [APEC, reference compound]
- reduction in locomotor activity at chosen dose ([1]; APEC 16 μg/kg, 3-IB-MECA 100 μg/kg i.p.): ca. 50%

Structure (SMILES): OC[C@H]1O[C@@H](n2cnc3c(NC4CCCC4)ncnc32)[C@H](O)[C@@H]1O [Compound 4, N^6 -cyclopentyladenosine, reference compound]
- ED50 ([1]; Mus musculus, ip, read-out: ED50 for locomotor depression): 0.1 mg/kg
- duration of bradycardiac effect ([4]; entire monitoring period): 90 min
- drop in blood pressure ([4]; from initial value): 50%
- drop in heart rate ([4]; from initial value): 20%
- time at which hypotensive effect begins to wane ([4]; post-injection): approximately 20 min

- Ki [5]: 203 ± 93 nM
Structure (SMILES): OC[C@H]1O[C@@H](n2cnc3c(NCc4ccccc4)ncnc32)[C@H](O)[C@@H]1O [Compound 7, N^6 -benzyladenosine, reference compound]

Structure (SMILES): NC(=O)[C@H]1O[C@@H](n2cnc3c(N)ncnc32)[C@H](O)[C@@H]1O [Compound 20, 5'-carboxamidoadenosine]
- Ki [6, 15]: 72.6 nM
- Ki [7, 16]: 120 nM

Structure (SMILES): CCNC(=O)[C@H]1O[C@@H](n2cnc3c(NC4CCCCC4)ncnc32)[C@H](O)[C@@H]1O [Compound 27, N^6 -cyclohexylNECA]
- Ki ([6]; read-out: A1 affinity Ki; cited from earlier work): 0.43 nM
- Ki [7, 16]: 170 nM

Structure (SMILES): N=C(N)NC(=O)c1nc(Cl)c(N)nc1N [Compound 97, amiloride]
- Ki ([6]; read-out: A1 affinity Ki; values without SEM, taken from the literature; cited from earlier work): 11000 nM
- Ki ([7]; read-out: A2 affinity Ki, values without SEM, taken from the literature): 17000 nM

Structure (SMILES): Cn1c(=O)[nH]c2nc[nH]c2c1=O [Compound 99, 1-methylX]
- Ki [6, 15]: 11400 nM
- Ki [7, 16]: 36200 nM

Structure (SMILES): Cn1cnc2c1c(=O)[nH]c(=O)n2C [Compound 106, 3,7-dimethylX]
- Ki [6, 15]: 83400 nM
- Ki [7, 16]: 187000 nM

Structure (SMILES): CCCn1c(=O)c2[nH]c(C3CCCC3)nc2n(CCC)c1=O [Compound 130, 8-cyclopentyl-1,3-dipropylxanthine]
- displacement of specific [125I]AB-MECA binding (in words) [8]: completely displaced most but not all of the high affinity [^125 I]AB-MECA binding
- Ki for displacement of [125I]AB-MECA binding ([8]; sigmoidal competition curves): 2 to 8 nM

Structure (SMILES): Cn1c(=O)c2c(nc(C=Cc3cccc(Cl)c3)n2C)n(C)c1=O [Compound 134, 8-(3-chlorostyryl)caffeine]
- reversal of APEC-elicited behavioral depression (in words) [9]: complete reversal
- reversal of 3-IB-MECA-mediated locomotor depression (in words) ([1]; CSC 1 mg/kg): small, statistically insignificant reversal
- displacement of specific [125I]AB-MECA binding (in words) [8]: failed to displace specific binding of [^125 I]AB-MECA

Structure (SMILES): CCCn1c(=O)c2[nH]c(-c3ccc(S(=O)(=O)O)cc3)nc2n(CCC)c1=O [Compound 135, 8-sulfophenyl-1,3-dipropylX]
- Ki [6, 15]: 140 nM
- Ki [7, 16]: 790 nM

- Ki [5]: 15200 nM
Structure (SMILES): CNC(=O)[C@H]1O[C@@H](n2cnc3c(NCc4cccc(I)c4)nc(Cl)nc32)[C@H](O)[C@@H]1O [Example 44, 2-chloro-N^6-(3-iodobenzyl)-9-[5-(methylamido)-β-D-ribofuranosyl]-adenine]

- Ki [2, 13]: 2140 ± 100 nM
- Ki [5]: 49500 nM
- Ratio of Ki (NBTI)/Ki ([125I]AB-MECA) ([5]; selectivity for cloned rat A3 receptors vs adenosine uptake site): 22,000
- Ki [3, 14]: 3210 ± 1360 nM
Structure (SMILES): CNC(=O)[C@H]1O[C@@H](n2cnc3c(NCc4cccc(I)c4)nc(SC)nc32)[C@H](O)[C@@H]1O [Example 46, N^6-(3-iodobenzyl)-2-methylthio-9-[5-(methylamido)-β-D-ribofuranosyl]-adenine]

Structure (SMILES): CNC(=O)[C@H]1O[C@@H](n2cnc3c(NCc4cccc(N=C=S)c4)ncnc32)[C@H](O)[C@@H]1O [N^6-(3-isothiocyanatobenzyl)adenosine-5'-N-methyluronamide]
- IC50 (rat A3 receptors): 50 nM
- Kd of remaining A3 receptor sites (in words) (rat A3 receptors): No change was observed in the Kd value
- irreversible inhibition of A3 binding (in words) (rat A3 receptors; CHO cells or RBL-2H3 mast cells): irreversible inhibition of radioligand binding at rat A3 receptors
- Ki [2]: 145 nM
- irreversible inhibition at rat A1 receptors (in words) [2]: not at rat A1 or A2a receptors
- Ki [3]: 272 nM
- irreversible inhibition at rat A2a receptors (in words) [3]: not at rat A1 or A2a receptors

Structure (SMILES): CNC(=O)[C@H]1O[C@@H](n2cnc3c(NCc4ccc(N)c([125I])c4)ncnc32)[C@H](O)[C@@H]1O [[^125 I]AB-MECA, [^125 I]4-amino-3-iodobenzyladenosine-5'-N-methyluronamide]
- A3 share of total specific binding, cerebellum and striatum ([10]; 0.4 nM [125I]AB-MECA): 18 % of total specific binding
- A3 share of total specific binding, hippocampus and cortex ([10]; 0.4 nM [125I]AB-MECA): 7-9 % of total specific binding
- Kd ([10]; mouse cerebellar membranes): 1.39 nM
- Bmax in rat brain membranes [11]: 43 fmol/mg protein
- Ki ([7]; Table 2, footnotes d/e: literature, read-out: Ki (A2)): 197 nM
- Bmax cerebellum ([8]; cerebellum): 120±5 fmol specifically bound/mg protein
- Bmax cortex ([8]; cortex): 159±15 fmol specifically bound/mg protein
- Bmax hippocampus ([8]; hippocampus): 215±17 fmol specifically bound/mg protein
- Kd values (Scatchard analysis) ([8]; regions of mouse brain): 1.9 to 2.8 nM
- Bmax striatum ([8]; striatum): 123±23 fmol specifically bound/mg protein
- specific binding of total binding [12]: ca. 70 % of total binding
- nonspecific binding ([12]; in the presence of 40 μM R-PIA): approximately 30 % of the total binding

Structure (SMILES): CN1CCC(=C2c3ccccc3C=Cc3ccccc32)CC1 [cyproheptadine, reference compound]
- effect on 3-IB-MECA-induced scratching (in words) ([1]; 1 mg/kg): only partial
- effect on 3-IB-MECA-induced scratching (in words) ([1]; 10 mg/kg i.p.): eliminated this behavior
